Test results as given in US7713966B2, “Heterobicyclic metalloprotease inhibitors” (Alantos Pharmaceuticals Holding, Inc., priority 2006, dated 2010).

Experiments:
Format in all cases: biochemical
[1] = molecular target: T1, catalytic domain of MMP-13 enzyme (Homo sapiens, UniProt P45452); test: Assay for determining MMP-13 inhibition (fluorescent substrate); conditions: read-out: MMP-13 Activity (IC50 MMP-13), Group
T1 construct: catalytic domain of MMP-13 enzyme (produced by Alantos or commercially available from Invitek (Berlin), Cat. # 30100812); purchased Invitek (Berlin) 30100812
Procedure: The typical assay for MMP-13 activity is carried out in assay buffer comprised of 50 mM Tris, pH 7.5, 150 mM NaCl, 5 mM CaCl2 and 0.05% Brij-35. Different concentrations of tested compounds are prepared in assay buffer in 50 μL aliquots. 10 μL of a 50 nM stock solution of catalytic domain of MMP-13 enzyme (produced by Alantos or commercially available from Invitek (Berlin), Cat. # 30100812) is added to the compound solution. The mixture of enzyme and compound in assay buffer is thoroughly mixed and incubated for 10 min at room temperature. Upon the completion of incubation, the assay is started by addition of 40 μl of a 12.5 μM stock solution of MMP-13 fluorescent substrate (Calbiochem, Cat. No. 444235). The time-dependent increase in fluorescence is measured at the 320 nm excitation and 390 nm emission by automatic plate multireader. The IC50 values are calculated from the initial reaction rates.

[2] = molecular target: T2, catalytic domain of MMP-3 enzyme (Homo sapiens, UniProt P08254); test: Assay for determining MMP-3 inhibition (NFF-3 fluorescent substrate); conditions: read-out: MMP-3 Activity (IC50 MMP-3), Group
T2 construct: catalytic domain of MMP-3 enzyme (Biomol, Cat. No. SE-109); purchased Biomol SE-109
Procedure: The typical assay for MMP-3 activity is carried out in assay buffer comprised of 50 mM MES, pH 6.0, 10 mM CaCl2 and 0.05% Brij-35. Different concentrations of tested compounds are prepared in assay buffer in 50 μL aliquots. 10 μL of a 100 nM stock solution of the catalytic domain of MMP-3 enzyme (Biomol, Cat. No. SE-109) is added to the compound solution. The mixture of enzyme and compound in assay buffer is thoroughly mixed and incubated for 10 min at room temperature. Upon the completion of incubation, the assay is started by addition of 40 μL of a 12.5 μM stock solution of NFF-3 fluorescent substrate (Calbiochem, Cat. No. 480455). The time-dependent increase in fluorescence is measured at the 330 nm excitation and 390 nm emission by an automatic plate multireader. The IC50 values are calculated from the initial reaction rates.

activated MMP-8 enzyme = molecular target: T3, activated MMP-8 enzyme (Homo sapiens, UniProt P22894); test: Assay for determining MMP-8 inhibition (OmniMMP fluorescent substrate); conditions: read-out: MMP-8 Activity (IC50 MMP-8), Group
T3 construct: purchased Calbiochem 444229
Procedure: The typical assay for MMP-8 activity is carried out in assay buffer comprised of 50 mM Tris, pH 7.5, 150 mM NaCl, 5 mM CaCl2 and 0.05% Brij-35. Different concentrations of tested compounds are prepared in assay buffer in 50 μL aliquots. 10 μL of a 50 nM stock solution of activated MMP-8 enzyme (Calbiochem, Cat. No. 444229) is added to the compound solution. The mixture of enzyme and compound in assay buffer is thoroughly mixed and incubated for 10 min at 37° C. Upon the completion of incubation, the assay is started by addition of 40 μL of a 10 μM stock solution of OmniMMP fluorescent substrate (Biomol, Cat. No. P-126). The time-dependent increase in fluorescence is measured at the 320 nm excitation and 390 nm emission by an automatic plate multireader at 37° C. The IC50 values are calculated from the initial reaction rates.

T3 sequence (P22894 101-467): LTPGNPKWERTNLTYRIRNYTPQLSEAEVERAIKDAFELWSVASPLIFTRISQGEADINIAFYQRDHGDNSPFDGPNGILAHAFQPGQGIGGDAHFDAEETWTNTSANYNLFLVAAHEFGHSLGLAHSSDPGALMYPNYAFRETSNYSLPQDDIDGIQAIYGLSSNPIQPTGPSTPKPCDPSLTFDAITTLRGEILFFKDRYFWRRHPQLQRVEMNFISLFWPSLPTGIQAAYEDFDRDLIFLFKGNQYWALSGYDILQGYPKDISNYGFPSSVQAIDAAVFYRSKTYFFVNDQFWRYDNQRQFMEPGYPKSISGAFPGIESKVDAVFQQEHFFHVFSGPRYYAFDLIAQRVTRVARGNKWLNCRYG
T2 sequence (P08254 100-272 limits assumed): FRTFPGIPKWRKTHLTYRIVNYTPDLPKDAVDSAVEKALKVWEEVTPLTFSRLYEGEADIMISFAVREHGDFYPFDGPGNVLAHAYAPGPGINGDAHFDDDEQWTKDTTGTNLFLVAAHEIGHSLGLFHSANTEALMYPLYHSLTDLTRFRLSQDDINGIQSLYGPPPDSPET

Cc1csc2nc(C(=O)NCc3ccc4c(c3)CN(c3c(N)c(=O)c3=O)CC4)[nH]c(=O)c12 [2/10]
IC50 [1]: < 100 nM | IC50 [2]: < 250 nM | IC50 (activated MMP-8 enzyme): < 250 nM

Cc1c(Br)sc2nc(C(=O)NCc3ccc4c(c3)NC(=O)CO4)[nH]c(=O)c12 [2/11]
IC50 [1]: < 100 nM | IC50 [2]: 250 to 20000 nM | IC50 (activated MMP-8 enzyme): < 250 nM

O=C1COc2ccc(CNC(=O)c3nc4ccsc4c(=O)[nH]3)cc2N1 [2/20]
IC50 [1]: < 100 nM | IC50 [2]: 250 to 20000 nM | IC50 (activated MMP-8 enzyme): 250 to 20000 nM

O=C1COc2ccc(CNC(=O)c3nc4ccc(F)cc4c(=O)[nH]3)cc2N1 [2/23]
IC50 [1]: < 100 nM | IC50 [2]: < 250 nM | IC50 (activated MMP-8 enzyme): < 250 nM

O=C1COc2ccc(CNC(=O)c3nc4ccc(Cl)cc4c(=O)[nH]3)cc2N1 [2/26]
IC50 [2]: < 250 nM | IC50 (activated MMP-8 enzyme): < 250 nM

O=C1COc2ccc(CNC(=O)c3nc4cc(Br)ccc4c(=O)[nH]3)cc2N1 [2/39]
IC50 [1]: < 100 nM | IC50 [2]: 250 to 20000 nM | IC50 (activated MMP-8 enzyme): < 250 nM

Cc1sc2nc(C(=O)NCc3ccc4c(c3)NC(=O)CO4)[nH]c(=O)c2c1C [2/46]
IC50 [1]: < 100 nM | IC50 [2]: 250 to 20000 nM | IC50 (activated MMP-8 enzyme): < 250 nM

O=C1COc2ccc(CNC(=O)c3nc4scc(-c5cccs5)c4c(=O)[nH]3)cc2N1 [2/49]
IC50 [2]: < 250 nM | IC50 (activated MMP-8 enzyme): 250 to 20000 nM

Nc1c(N2CCc3ccc(CNC(=O)c4nc5scc(-c6cccs6)c5c(=O)[nH]4)cc3C2)c(=O)c1=O [2/51]
IC50 [1]: < 100 nM | IC50 [2]: < 250 nM | IC50 (activated MMP-8 enzyme): 250 to 20000 nM

O=C1COc2ccc(CNC(=O)c3nc4c(c(=O)[nH]3)CCCC4)cc2N1 [2/55]
IC50 [1]: < 100 nM | IC50 [2]: 250 to 20000 nM | IC50 (activated MMP-8 enzyme): < 250 nM

COc1ccc2nc(C(=O)NCc3ccc4c(c3)NC(=O)CO4)[nH]c(=O)c2c1 [2/71]
IC50 [2]: < 250 nM

O=C1COc2ccc(CNC(=O)c3nc4cccc(F)c4c(=O)[nH]3)cc2N1 [2/74]
IC50 [1]: < 100 nM | IC50 [2]: < 250 nM | IC50 (activated MMP-8 enzyme): < 250 nM

O=C1COc2ccc(CNC(=O)c3nc4scc(C(F)(F)F)c4c(=O)[nH]3)cc2N1 [2/86]
IC50 [1]: < 100 nM | IC50 [2]: < 250 nM | IC50 (activated MMP-8 enzyme): 250 to 20000 nM

CC(=O)NCc1ccc2nc(C(=O)NCc3ccc4c(c3)NC(=O)CO4)[nH]c(=O)c2c1 [2/91]
IC50 [2]: < 250 nM

O=C1COc2ccc(CNC(=O)c3nc4ccc(CNC(=O)c5ccccc5)cc4c(=O)[nH]3)cc2N1 [2/93]
IC50 [1]: < 100 nM | IC50 [2]: 250 to 20000 nM | IC50 (activated MMP-8 enzyme): < 250 nM

Nc1c(N2CCc3ccc(CNC(=O)c4nc5scc(-c6ccco6)c5c(=O)[nH]4)cc3C2)c(=O)c1=O [2/98]
IC50 [1]: < 100 nM | IC50 [2]: < 250 nM | IC50 (activated MMP-8 enzyme): 250 to 20000 nM

Cc1sc2nc(C(=O)NCc3ccc4c(c3)NC(=O)CO4)[nH]c(=O)c2c1-c1ccccc1 [2/105]
IC50 [2]: 250 to 20000 nM | IC50 (activated MMP-8 enzyme): 250 to 20000 nM

Nc1c(N2CCc3ccc(CNC(=O)c4nc5scc(-c6ccccc6)c5c(=O)[nH]4)cc3C2)c(=O)c1=O [2/110]
IC50 [1]: < 100 nM | IC50 [2]: 250 to 20000 nM | IC50 (activated MMP-8 enzyme): 250 to 20000 nM

Cc1nsc2nc(C(=O)NCc3ccc4c(c3)CN(c3c(N)c(=O)c3=O)CC4)[nH]c(=O)c12 [2/134]
IC50 [1]: 100 to 20000 nM | IC50 [2]: < 250 nM | IC50 (activated MMP-8 enzyme): 250 to 20000 nM

CN(C)C(=O)Cc1csc2nc(C(=O)NCc3ccc4c(c3)NC(=O)CO4)[nH]c(=O)c12 [2/160]
IC50 [1]: < 100 nM | IC50 [2]: 250 to 20000 nM | IC50 (activated MMP-8 enzyme): < 250 nM

CNC(=O)C(C)c1csc2nc(C(=O)NCc3ccc4c(c3)NC(=O)CO4)[nH]c(=O)c12 (stereo not drawn) [2/183]
IC50 [2]: 250 to 20000 nM | IC50 (activated MMP-8 enzyme): < 250 nM

O=C1COc2ccc(CNC(=O)c3nc4scc(-c5cnccn5)c4c(=O)[nH]3)cc2N1 [2/185]
IC50 [1]: < 100 nM | IC50 [2]: < 250 nM | IC50 (activated MMP-8 enzyme): 250 to 20000 nM

Nc1c(N2CCc3ccc(CNC(=O)c4nc5scc(-c6cnccn6)c5c(=O)[nH]4)cc3C2)c(=O)c1=O [2/186]
IC50 [1]: < 100 nM | IC50 [2]: < 250 nM

Cc1sc2nc(C(=O)NCc3ccc4c(c3)NC(=NC#N)CO4)[nH]c(=O)c2c1C [2/221]
IC50 [1]: < 100 nM | IC50 [2]: 250 to 20000 nM | IC50 (activated MMP-8 enzyme): < 250 nM

O=C1COc2ccc(CNC(=O)c3nc4scc(-c5nccs5)c4c(=O)[nH]3)cc2N1 [2/265]
IC50 [1]: < 100 nM | IC50 [2]: < 250 nM | IC50 (activated MMP-8 enzyme): 250 to 20000 nM

O=C(Cc1csc2nc(C(=O)NCc3ccc4c(c3)NC(=O)CO4)[nH]c(=O)c12)NCS(=O)(=O)O [2/271]
IC50 [1]: < 100 nM | IC50 [2]: 250 to 20000 nM

Cc1sc2nc(C(=O)NCc3ccc4c(c3)NC(=O)CO4)[nH]c(=O)c2c1C(C)c1ccccc1 (stereo not drawn) [2/373]
IC50 [1]: < 100 nM | IC50 [2]: 250 to 20000 nM | IC50 (activated MMP-8 enzyme): < 250 nM

Cc1c(CC(=O)O)sc2nc(C(=O)NCc3ccc4c(c3)NC(=O)CO4)[nH]c(=O)c12 [4/12]
IC50 [1]: < 100 nM | IC50 [2]: 250 to 20000 nM

Cc1c(CC(=O)O)sc2nc(C(=O)NCc3ccc4c(c3)CN(c3c(N)c(=O)c3=O)CC4)[nH]c(=O)c12 [4/13]
IC50 [1]: < 100 nM | IC50 [2]: < 250 nM | IC50 (activated MMP-8 enzyme): < 250 nM

C[C@@H](NC(=O)c1ccccc1)c1ccc2nc(C(=O)NCc3ccc4c(c3)NC(=O)CO4)[nH]c(=O)c2c1 [29/1]
IC50 [1]: < 100 nM | IC50 [2]: 250 to 20000 nM | IC50 (activated MMP-8 enzyme): < 250 nM

O=C1COc2ccc(CNC(=O)c3nc4cccc(NCc5ccccc5)c4c(=O)[nH]3)cc2N1 [36/3]
IC50 [2]: 250 to 20000 nM

O=C1COc2ccc(CNC(=O)c3nc4[nH]ncc4c(=O)[nH]3)cc2N1 [39/13]
IC50 [1]: 100 to 20000 nM | IC50 [2]: 250 to 20000 nM

O=C1COc2ccc(CNC(=O)c3nc4ccc(Br)cc4c(=O)[nH]3)cc2N1 [Example 2/21]
IC50 [1]: < 100 nM | IC50 [2]: < 250 nM | IC50 (activated MMP-8 enzyme): < 250 nM

N#Cc1ccc2nc(C(=O)NCc3ccc4c(c3)NC(=O)CO4)[nH]c(=O)c2c1 [Example 9]
IC50 [1]: < 100 nM | IC50 [2]: < 250 nM | IC50 (activated MMP-8 enzyme): < 250 nM

CC(C)(C)OC(=O)NCc1ccc2nc(C(=O)NCc3ccc4c(c3)NC(=O)CO4)[nH]c(=O)c2c1 [Example 14]
IC50 [1]: < 100 nM | IC50 [2]: 250 to 20000 nM | IC50 (activated MMP-8 enzyme): < 250 nM

N#CCc1csc2nc(C(=O)NCc3ccc4c(c3)NC(=O)CO4)[nH]c(=O)c12 [Example 19]
IC50 [1]: < 100 nM | IC50 [2]: < 250 nM | IC50 (activated MMP-8 enzyme): < 250 nM

Cc1c(C(C)O)sc2nc(C(=O)NCc3ccc4c(c3)NC(=O)CO4)[nH]c(=O)c12 (stereo not drawn) [Example 21]
IC50 [1]: < 100 nM | IC50 (activated MMP-8 enzyme): < 250 nM

COc1cccc2nc(C(=O)NCc3ccc4c(c3)NC(=O)CO4)[nH]c(=O)c12 [Example 35]
IC50 [1]: < 100 nM | IC50 [2]: < 250 nM | IC50 (activated MMP-8 enzyme): < 250 nM

COC(=O)c1cccc2nc(C(=O)NCc3ccc4c(c3)NC(=O)CO4)[nH]c(=O)c12 [Example 36]
IC50 [1]: < 100 nM | IC50 [2]: 250 to 20000 nM | IC50 (activated MMP-8 enzyme): 250 to 20000 nM
